Data: patent EP4803520A1, “COMPOUND CONTAINING FUSED BICYCLIC RING, PHARMACEUTICAL COMPOSITION, AND USE THEREOF” (priority 2023, dated 2025)

Assays:
[1] = tested on: MDA-MB-436 cells; test: Assay on inhibitory activity for MDA-MB-436 cell proliferation (CCK-8); assay type: cell-based; conditions: 168 h of incubation, CCK-8, absorbance at 450 nm
Protocol: MDA-MB-436 cells in a good growth state were collected into a centrifuge tube, adjusted to a cell density of 2 × 10^4 cells/mL using a complete medium (DMEM high glucose + 10% FBS + 1× insulin-transferrin-selenium (ITS-G) + 16 µg/mL reduced glutathione), and seeded in a 96-well plate (100 µL/well), and the plate was incubated overnight in a cell incubator. Compounds were added using a pipettor, such that the final concentrations of the compounds were 400 nM-0.02 nM. The wells were set in duplicate, and a control well was set. After 168 h of incubation in the cell incubator, the assay reagent CCK-8 (manufacturer: Dojindo Laboratories, Beijing; 10 µL/well) was added. After 1.5 h of incubation in the cell incubator, the absorbance values were measured at 450 nm on a PerkinElmer Envision microplate reader. […] Inhibitory activity results for DA-MB-436 cell proliferation of compounds

[2] = target: T1, PARP1 (Homo sapiens, UniProt P09874); test: Assay on PARP1 protein activity (chemiluminescence assay kit)
T1 sequence (P09874 whole entry): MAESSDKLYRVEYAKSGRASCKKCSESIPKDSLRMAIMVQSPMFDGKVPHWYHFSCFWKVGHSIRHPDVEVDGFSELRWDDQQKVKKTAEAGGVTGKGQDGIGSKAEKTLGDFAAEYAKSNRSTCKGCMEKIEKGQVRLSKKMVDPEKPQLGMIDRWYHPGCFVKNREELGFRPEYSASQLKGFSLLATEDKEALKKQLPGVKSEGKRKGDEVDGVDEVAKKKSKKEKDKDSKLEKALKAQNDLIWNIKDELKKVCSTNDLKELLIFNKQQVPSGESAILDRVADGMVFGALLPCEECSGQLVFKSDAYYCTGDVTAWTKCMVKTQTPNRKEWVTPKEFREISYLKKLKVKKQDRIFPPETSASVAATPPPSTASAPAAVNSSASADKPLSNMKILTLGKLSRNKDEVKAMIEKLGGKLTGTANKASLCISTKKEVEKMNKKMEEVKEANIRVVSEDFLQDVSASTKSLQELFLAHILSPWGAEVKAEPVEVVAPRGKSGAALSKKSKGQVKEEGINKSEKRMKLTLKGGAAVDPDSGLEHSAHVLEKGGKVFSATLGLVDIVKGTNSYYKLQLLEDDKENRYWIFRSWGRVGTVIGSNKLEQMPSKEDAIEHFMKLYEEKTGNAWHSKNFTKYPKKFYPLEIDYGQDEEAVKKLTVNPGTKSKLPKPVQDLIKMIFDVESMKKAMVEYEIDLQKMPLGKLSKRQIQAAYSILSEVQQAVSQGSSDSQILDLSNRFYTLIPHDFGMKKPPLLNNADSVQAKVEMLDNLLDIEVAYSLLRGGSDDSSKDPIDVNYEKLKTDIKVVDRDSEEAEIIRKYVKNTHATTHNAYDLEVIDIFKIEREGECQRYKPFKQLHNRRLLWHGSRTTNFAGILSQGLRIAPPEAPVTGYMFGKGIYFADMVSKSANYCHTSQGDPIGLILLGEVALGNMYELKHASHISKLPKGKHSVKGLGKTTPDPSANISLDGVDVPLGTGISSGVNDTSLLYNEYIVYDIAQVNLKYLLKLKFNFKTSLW
Protocol: A chemiluminescence assay kit (BPS, Cat. No. 80551) was used. 50 µL of 1× histone was added to a 96-well plate and incubated overnight at 4 °C. Each well was washed 3 times with 200 µL of a PBST buffer (containing 0.05% Tween-20), and the liquid was removed from the plate. 200 µL of blocking buffer 3 was added, and the plate was blocked at room temperature for 60-90 min. The blocking solution was discarded, and the plate was washed 3 times with a PBST buffer, followed by the removal of the liquid from the plate. 25 µL of a master mix (2.5 µL of a 10× PARP buffer + 2.5 µL of a 10× biotinylated substrate assay mix + 5 µL of activated DNA (5×) + 15 µL of water) and 5 µL of a 1× PARP buffer were added to each well. Compounds were sprayed using a nanoliter pipettor in the compound groups. 20 µL of a 1× PARP buffer was added to the blank control group, and 20 µL of PARP 1 enzyme (2.4 ng/mL) was added to the other wells to initiate the reaction. The plate was incubated at room temperature for 1 h. 50 µL of streptavidin-HRP (diluted 1:50 in blocking buffer 3) was added to each well, and the plate was incubated at room temperature for 30 min. The plate was washed three times with PBST, and the liquid was removed from the plate. 50 µL of ELISA ECL substrate A and 50 µL of ELISA ECL substrate B were mixed on ice before use, and 100 µL were added to each well.

[3] = target: T1, PARP1; test: PARP1-Tracer activity assay (FP method); assay type: binding; set-up: purchased BPS 80551; conditions: ratio of PARP2 IC50 to PARP1 IC50, FP method
Protocol: The enzyme inhibition activity of the compounds against PARP1/2-Tracer was tested using the FP method. First, 100 nL of inhibitors with a final concentration of 1% DMSO were transferred to a 384-well reaction plate (Corning 4514) using Echo655. Then, 5 µL of a PARP1/2 (BPS, Cat. No. 80501/80502) enzyme solution was added to each well, followed by centrifugation at 1000 RPM for 1 min at room temperature, and the reaction was allowed to proceed for 10 min. Subsequently, 5 µL of a Tracer (ICE, Cat. No. 001315-009) solution was added to each well, followed by centrifugation at 1000 RPM for 1 min at room temperature, and the reaction was allowed to proceed for 60 min. PARP1/2 and Tracer were prepared in a buffer containing 50 mM Tris (pH 8.0), 10 mM MgCl2, 150 mM NaCl, and 0.001% Triox-100, with final concentrations of 5/10 nM and 2.5 nM, respectively. Finally, the FP signal was read using BMG (PHERAstar FSX), and the IC50 values and nonlinear regression curve fitting were obtained using GraphPad Prism software.

| IC50 ([1]; Homo sapiens, MDA-MB-436) [nM] | Structure (SMILES) | also measured |
| --- | --- | --- |
| ≤ 50 | CNC(=O)n1cc2c(n1)CN(C1CN(Cc3ccc4cc(Cl)c(=O)[nH]c4c3)C1)C2 [Compound 26] |  |
|  | CCc1cc2ncc(CN3CC(N4Cc5cn(C(=O)NC)nc5C4)C3)cc2[nH]c1=O [Compound 10] | IC50 [1]: ≤ 50 nM |
| ≤ 50 | CNC(=O)n1cc2c(n1)CN(C1CN(Cc3ccc4cc(C(F)(F)F)c(=O)[nH]c4c3)[C@@H]1C)C2 (single isomer, unassigned) [Compound 35] |  |
| ≤ 50 | CNC(=O)n1cc2c(n1)CN([C@H]1CN(Cc3ccc4cc(C5CC5)c(=O)[nH]c4c3)[C@H]1C)C2 [Compound 42] | IC50 [2]: < 1 nM |
| ≤ 50 | CNC(=O)n1cc2c(n1)CN(C1CN(Cc3ccc4c(c3)[nH]c(=O)n3cccc43)C1)C2 [Compound 34] |  |
| ≤ 50 | CNC(=O)c1nc2c(s1)CN(C1CN(Cc3ccc4cc(C(F)(F)F)c(=O)[nH]c4c3)C1)C2 [Compound 28] |  |
| ≤ 50 | CCc1nc2ccc(CN3C[C@H](N4Cc5cn(C(=O)NC)nc5C4)[C@@H]3C)c(F)c2[nH]c1=O [Compound 51] |  |
|  | CNC(=O)n1cc2c(n1)CN([C@@H]1CN(Cc3ccc4cc(C5CC5)c(=O)[nH]c4c3)[C@H]1C)C2 [Compound 43] | IC50 [1]: ≤ 50 nM |
|  | CCc1cc2ccc(CN3CC(N4Cc5cn(C(=O)NC6CC6)nc5C4)C3)cc2[nH]c1=O [Compound 4] | IC50 [1]: ≤ 50 nM |
|  | CCc1cc2ncc(CN3CC(N4Cc5cn(C(=O)NC6CC6)nc5C4)C3)cc2[nH]c1=O [Compound 5] | IC50 [1]: ≤ 50 nM |
| ≤ 50 | CCc1cc2ccc(CN3C[C@H](N4Cc5cn(C(=O)NC)nc5C4)[C@@H]3C)cc2[nH]c1=O [Compound 41] | IC50 [2]: < 10 nM |
|  | CCc1cc2ccc(CN3CC(N4Cc5cn(C(=O)NC)nc5C4)C3)cc2[nH]c1=O [Compound 1] | IC50 [1]: ≤ 50 nM |
| ≤ 50 | CNC(=O)n1cc2c(n1)CN(C1CN(Cc3ccc4cc(C(F)(F)F)c(=O)[nH]c4c3)C1)C2 [Compound 24] | PARP2/PARP 1 selectivity [3]: >200 fold |
| ≤ 50 | CCc1cc2ccc(CN3CC(N4Cc5nc(C(=O)NC)sc5C4)C3)cc2[nH]c1=O [Compound 19] |  |
| ≤ 50 | CNC(=O)c1cc2c(s1)CN(C1CN(Cc3ccc4cc(C(F)(F)F)c(=O)[nH]c4c3)C1)C2 [Compound 33] |  |
| ≤ 50 | CCc1cc2c(F)cc(CN3CC(N4Cc5cn(C(=O)NC6CC6)nc5C4)C3)cc2[nH]c1=O [Compound 20] |  |
| ≤ 50 | CNC(=O)c1nc2c(s1)CN(C1CN(Cc3ccc4cc(Cl)c(=O)[nH]c4c3)C1)C2 [Compound 27] |  |
| ≤ 50 | Cc1cc2ccc(CN3CC(N4Cc5cn(C(=O)NC6CC6)nc5C4)C3)cc2[nH]c1=O [Compound 23] |  |
| ≤ 50 | CNC(=O)n1cc2c(n1)CN(C1CN(Cc3ccc4cc(C5CC5)c(=O)[nH]c4c3)[C@@H]1C)C2 (single isomer, unassigned) [Compound 40] |  |
| ≤ 50 | CCc1cc2c(Cl)cc(CN3CC(N4Cc5cn(C(=O)NC)nc5C4)C3)cc2[nH]c1=O [Compound 25] |  |
